In general, EC50 refers to the concentration giving half of the maximal effect. A word on the AC50: it is the midpoint of the concentration-response curve, whichever way the signal moves. As usually defined, the CC50 is the concentration that lowers cell viability or growth by half.

SMILES strings stand for the structures. Calls of active or inactive are those of the source. Some results are limits rather than exact numbers.

The values below come from ChEMBL document CHEMBL1201862, “PubChem BioAssay data set” (2004).

Assay [1] deals with T1, Sphingosine 1-phosphate receptor 2 (Homo sapiens, UniProt O95136). Kind of assay: Late-stage fluorescence-based dose-response cell-based counterscreen assay to identify agonists of the Sphingosine 1-Phosphate Receptor 3 (S1P3): Sphingosine 1-Phosphate Receptor 2 (S1P2) agonist assay. Format: functional. On the technique in general: Counterscreens check selectivity or assay interference.
T1 sequence (O95136 whole entry): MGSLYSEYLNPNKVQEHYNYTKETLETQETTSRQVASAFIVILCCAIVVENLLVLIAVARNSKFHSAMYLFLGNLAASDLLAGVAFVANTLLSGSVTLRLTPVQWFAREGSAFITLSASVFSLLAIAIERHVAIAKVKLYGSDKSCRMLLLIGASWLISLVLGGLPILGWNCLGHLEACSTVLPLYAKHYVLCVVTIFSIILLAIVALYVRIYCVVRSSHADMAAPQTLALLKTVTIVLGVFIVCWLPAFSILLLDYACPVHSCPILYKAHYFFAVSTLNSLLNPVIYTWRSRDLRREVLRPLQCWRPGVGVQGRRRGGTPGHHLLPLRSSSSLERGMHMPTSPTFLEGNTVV

Assay [2] deals with DNA damage-inducible transcript 3 protein (Mus musculus, UniProt P35639). Format: functional, Cricetulus griseus.
Sequence of DNA damage-inducible transcript 3 protein (P35639 whole entry): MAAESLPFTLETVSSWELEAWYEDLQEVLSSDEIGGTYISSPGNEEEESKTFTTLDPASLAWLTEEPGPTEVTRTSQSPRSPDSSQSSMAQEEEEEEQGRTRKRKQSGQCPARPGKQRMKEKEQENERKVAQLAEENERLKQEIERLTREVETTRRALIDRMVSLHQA
Assay [3] deals with Sphingosine 1-phosphate receptor 1 (Homo sapiens, UniProt P21453). Briefly: Dose Response Cell-Based Assay for Agonists of the Sphingosine 1-Phosphate Receptor 1 (S1P1): Purchased Analogues. [Related pubchem assays: 1192, 373, 439 ]. Format: functional.
Sequence of Sphingosine 1-phosphate receptor 1 (P21453 whole entry): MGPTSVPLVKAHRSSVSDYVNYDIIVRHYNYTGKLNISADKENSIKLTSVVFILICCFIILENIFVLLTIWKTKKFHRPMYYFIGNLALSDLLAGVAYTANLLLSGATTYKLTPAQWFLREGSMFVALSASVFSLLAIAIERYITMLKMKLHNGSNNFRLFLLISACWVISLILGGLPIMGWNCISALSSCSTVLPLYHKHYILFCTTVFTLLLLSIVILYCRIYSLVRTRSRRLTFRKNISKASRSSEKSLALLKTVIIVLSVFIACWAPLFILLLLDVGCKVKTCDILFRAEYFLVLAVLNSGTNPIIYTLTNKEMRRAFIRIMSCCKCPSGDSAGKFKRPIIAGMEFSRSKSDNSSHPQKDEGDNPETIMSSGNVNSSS
The target of assay [4] is Sphingosine 1-phosphate receptor 3 (Homo sapiens, UniProt Q99500). Kind of assay: Dose Response Cell-Based Assay for Agonists of the Sphingosine 1-Phosphate Receptor 3 (S1P3): Purchased Analogues. [Related pubchem assays: 373, 439 ]. Format: functional.
Sequence of Sphingosine 1-phosphate receptor 3 (Q99500 whole entry): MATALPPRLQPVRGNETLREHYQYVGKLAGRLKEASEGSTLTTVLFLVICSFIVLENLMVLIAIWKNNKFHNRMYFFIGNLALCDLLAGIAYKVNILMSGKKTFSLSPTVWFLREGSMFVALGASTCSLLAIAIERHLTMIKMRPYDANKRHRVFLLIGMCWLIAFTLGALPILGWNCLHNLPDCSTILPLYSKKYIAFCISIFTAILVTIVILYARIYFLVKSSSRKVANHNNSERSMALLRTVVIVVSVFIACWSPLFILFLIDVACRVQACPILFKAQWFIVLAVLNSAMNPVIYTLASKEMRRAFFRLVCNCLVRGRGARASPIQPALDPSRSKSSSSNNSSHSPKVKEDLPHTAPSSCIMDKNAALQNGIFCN
Assay [5] has as its target T1, Sphingosine 1-phosphate receptor 2. Kind of assay: Dose Response Cell-Based Assay for Agonists of the Sphingosine 1-Phosphate Receptor 2 (S1P2): Purchased Analogues. [Related pubchem assays: 1192, 373, 439 ]. Format: functional.
Assay [6] deals with Sphingosine 1-phosphate receptor 4 (Homo sapiens, UniProt O95977). Kind of assay: Late-stage fluorescence-based dose-response cell-based counterscreen assay to identify agonists of the Sphingosine 1-Phosphate Receptor 3 (S1P3): Sphingosine 1-Phosphate Receptor 4 (S1P4) agonist assay. Format: functional.
Sequence of Sphingosine 1-phosphate receptor 4 (O95977 whole entry): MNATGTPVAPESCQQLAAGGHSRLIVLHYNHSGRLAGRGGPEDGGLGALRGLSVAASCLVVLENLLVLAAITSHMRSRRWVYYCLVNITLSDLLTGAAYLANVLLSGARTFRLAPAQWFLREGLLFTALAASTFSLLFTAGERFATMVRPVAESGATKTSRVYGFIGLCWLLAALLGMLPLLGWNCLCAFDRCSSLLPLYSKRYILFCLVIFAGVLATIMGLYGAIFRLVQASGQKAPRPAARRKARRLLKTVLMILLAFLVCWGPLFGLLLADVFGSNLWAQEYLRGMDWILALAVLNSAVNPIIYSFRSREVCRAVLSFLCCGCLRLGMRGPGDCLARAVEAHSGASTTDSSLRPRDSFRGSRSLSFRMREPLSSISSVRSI
The target of assay [7] is X-box-binding protein 1 (Homo sapiens, UniProt P17861). Format: functional, Cricetulus griseus.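 Further: confirmatory dose-response counter-screen serving a CHOP assay.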
Sequence of X-box-binding protein 1 (P17861 whole entry): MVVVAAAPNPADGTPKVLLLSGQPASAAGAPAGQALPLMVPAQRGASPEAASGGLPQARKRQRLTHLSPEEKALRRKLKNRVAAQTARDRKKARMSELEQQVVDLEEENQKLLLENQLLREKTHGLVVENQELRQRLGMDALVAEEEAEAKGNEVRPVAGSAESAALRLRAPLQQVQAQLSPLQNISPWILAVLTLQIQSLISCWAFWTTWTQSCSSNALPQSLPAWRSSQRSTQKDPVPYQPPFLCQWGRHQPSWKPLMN
In assay [8] the target is T2, Sentrin-specific protease 8 (Homo sapiens, UniProt Q96LD8).
T2 sequence (Q96LD8 whole entry): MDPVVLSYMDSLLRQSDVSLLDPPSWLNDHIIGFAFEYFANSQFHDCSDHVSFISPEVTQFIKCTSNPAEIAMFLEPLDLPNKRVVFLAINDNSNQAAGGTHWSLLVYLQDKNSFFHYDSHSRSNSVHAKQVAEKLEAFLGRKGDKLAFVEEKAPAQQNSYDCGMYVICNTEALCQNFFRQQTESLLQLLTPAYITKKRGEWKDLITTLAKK
Kind of assay: SENP8 protease inhibitors, SAR follow-up, biochemical, luminescence, set 2 (AID 588601). Format: functional.

Assay [9] is described as follows: Luminescence Cell-Based Dose Retest to Confirm Inhibitors of Cancer Stem Cells. [Related pubchem assays (depositor defined):AID2717, AID2721]. Format: functional. Conditions: Homo sapiens.
In assay [10] the target is T3, Caspase-3 (Homo sapiens, UniProt P42574).
T3 sequence (P42574 whole entry): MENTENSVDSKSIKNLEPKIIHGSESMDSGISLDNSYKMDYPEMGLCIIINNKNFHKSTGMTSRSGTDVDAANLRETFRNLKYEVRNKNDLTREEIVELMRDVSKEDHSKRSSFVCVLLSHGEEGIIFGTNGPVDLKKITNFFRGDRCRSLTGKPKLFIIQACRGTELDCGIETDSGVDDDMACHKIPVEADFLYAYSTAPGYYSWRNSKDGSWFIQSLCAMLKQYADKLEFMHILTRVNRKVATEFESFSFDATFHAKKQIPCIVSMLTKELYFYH
Kind of assay: caspase-3 inhibitors as off-family protease, SAR follow-up, selectivity assay for SENP protease inhibitor project, biochemical, luminescence, set 2 (AID 588599). Format: functional.

Assay [11] in a line: HEp-2 cell cytotoxicity, dose response, cytotoxicity control for RSV inhibitor project, HTS (AID 2410). To be noted: human respiratory syncytial virus. Format: functional.
The target in assay [12] is T4, Sentrin-specific protease 6 (Homo sapiens, UniProt Q9GZR1).
T4 sequence (Q9GZR1 whole entry): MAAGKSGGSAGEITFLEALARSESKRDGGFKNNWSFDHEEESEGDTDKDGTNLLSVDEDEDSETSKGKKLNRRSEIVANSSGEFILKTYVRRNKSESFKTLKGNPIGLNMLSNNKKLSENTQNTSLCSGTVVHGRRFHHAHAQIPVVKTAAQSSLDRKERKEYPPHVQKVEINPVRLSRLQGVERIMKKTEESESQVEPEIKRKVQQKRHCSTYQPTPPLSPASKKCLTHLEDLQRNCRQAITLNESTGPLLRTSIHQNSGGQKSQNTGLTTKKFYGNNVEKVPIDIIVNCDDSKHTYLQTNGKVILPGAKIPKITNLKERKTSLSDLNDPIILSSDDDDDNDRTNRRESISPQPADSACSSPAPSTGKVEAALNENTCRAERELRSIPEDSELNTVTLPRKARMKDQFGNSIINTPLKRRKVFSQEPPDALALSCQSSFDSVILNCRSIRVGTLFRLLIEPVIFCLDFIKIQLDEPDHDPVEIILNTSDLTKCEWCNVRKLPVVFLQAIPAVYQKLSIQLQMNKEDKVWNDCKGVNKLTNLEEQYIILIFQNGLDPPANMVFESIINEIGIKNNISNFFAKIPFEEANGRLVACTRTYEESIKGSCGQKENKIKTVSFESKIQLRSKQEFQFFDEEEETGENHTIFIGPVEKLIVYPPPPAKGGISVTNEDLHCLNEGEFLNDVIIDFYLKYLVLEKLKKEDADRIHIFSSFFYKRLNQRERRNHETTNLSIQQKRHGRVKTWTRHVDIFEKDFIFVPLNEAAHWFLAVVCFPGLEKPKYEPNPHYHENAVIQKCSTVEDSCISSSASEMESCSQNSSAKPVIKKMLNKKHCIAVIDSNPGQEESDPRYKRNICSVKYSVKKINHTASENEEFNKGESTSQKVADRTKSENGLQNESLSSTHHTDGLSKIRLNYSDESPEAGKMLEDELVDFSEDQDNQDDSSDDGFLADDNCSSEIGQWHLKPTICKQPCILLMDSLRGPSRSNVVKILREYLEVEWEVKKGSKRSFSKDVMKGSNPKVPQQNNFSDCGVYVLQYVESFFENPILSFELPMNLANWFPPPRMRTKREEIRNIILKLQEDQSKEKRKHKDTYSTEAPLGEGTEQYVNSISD
Briefly: SENP6 protease inhibitors, SAR follow-up, biochemical, luminescence, set 2 (AID 588598). Format: functional.

Assay [13] concerns the target T5, Sentrin-specific protease 7 (Homo sapiens, UniProt Q9BQF6).
T5 sequence (Q9BQF6 whole entry): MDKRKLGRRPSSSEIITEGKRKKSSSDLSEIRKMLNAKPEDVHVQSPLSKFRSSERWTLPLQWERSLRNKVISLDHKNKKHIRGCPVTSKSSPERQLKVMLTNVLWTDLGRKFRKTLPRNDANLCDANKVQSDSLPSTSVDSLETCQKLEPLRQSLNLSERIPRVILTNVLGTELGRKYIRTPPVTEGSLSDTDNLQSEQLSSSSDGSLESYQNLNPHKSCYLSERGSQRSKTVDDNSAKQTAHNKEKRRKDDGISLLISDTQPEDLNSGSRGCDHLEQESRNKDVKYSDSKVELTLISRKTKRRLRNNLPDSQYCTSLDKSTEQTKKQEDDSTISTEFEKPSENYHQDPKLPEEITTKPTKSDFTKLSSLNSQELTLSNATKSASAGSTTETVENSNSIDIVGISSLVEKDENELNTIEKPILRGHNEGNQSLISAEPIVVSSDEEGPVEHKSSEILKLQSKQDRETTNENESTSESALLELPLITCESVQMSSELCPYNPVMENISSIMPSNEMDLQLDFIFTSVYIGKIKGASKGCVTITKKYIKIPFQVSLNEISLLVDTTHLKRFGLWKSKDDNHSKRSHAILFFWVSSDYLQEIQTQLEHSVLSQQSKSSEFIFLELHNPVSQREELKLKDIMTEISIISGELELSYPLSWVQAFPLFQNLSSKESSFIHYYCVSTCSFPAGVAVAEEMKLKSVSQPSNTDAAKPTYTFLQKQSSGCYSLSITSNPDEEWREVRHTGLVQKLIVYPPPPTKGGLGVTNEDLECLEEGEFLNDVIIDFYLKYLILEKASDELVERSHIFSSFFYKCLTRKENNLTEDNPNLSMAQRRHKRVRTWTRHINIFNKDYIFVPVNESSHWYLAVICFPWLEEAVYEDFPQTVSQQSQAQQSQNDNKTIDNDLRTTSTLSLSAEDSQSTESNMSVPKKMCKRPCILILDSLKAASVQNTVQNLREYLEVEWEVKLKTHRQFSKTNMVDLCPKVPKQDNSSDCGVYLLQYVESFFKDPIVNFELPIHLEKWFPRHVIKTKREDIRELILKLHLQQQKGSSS
Kind of assay: SENP7 protease inhibitors, SAR follow-up, biochemical, luminescence, set 2 (AID 588600). Format: functional.

Assay [14] has as its target Neurotensin receptor type 1 (Homo sapiens, UniProt P30989). Format: functional.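 Further: Image-based confirmatory dose-response assay measuring agonist activity at NTR1; NTR1-expressing U2OS osteosarcoma cells imaged for beta-arrestin GFP spot formation; agonist potency where compounds increase beta-arrestin recruitment.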
The target of assay [15] is Melanocortin receptor 4 (Homo sapiens, UniProt P32245). Format: functional, cell-based.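 Further: Cell-based assay with luminescence read-out, confirmatory dose-response testing for agonist activity of biased ligands at MC4R; human U2OS cells with tagged receptor and beta-arrestin; potency of agonists that increase receptor coupling to beta-arrestin.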
Sequence of Melanocortin receptor 4 (P32245 whole entry): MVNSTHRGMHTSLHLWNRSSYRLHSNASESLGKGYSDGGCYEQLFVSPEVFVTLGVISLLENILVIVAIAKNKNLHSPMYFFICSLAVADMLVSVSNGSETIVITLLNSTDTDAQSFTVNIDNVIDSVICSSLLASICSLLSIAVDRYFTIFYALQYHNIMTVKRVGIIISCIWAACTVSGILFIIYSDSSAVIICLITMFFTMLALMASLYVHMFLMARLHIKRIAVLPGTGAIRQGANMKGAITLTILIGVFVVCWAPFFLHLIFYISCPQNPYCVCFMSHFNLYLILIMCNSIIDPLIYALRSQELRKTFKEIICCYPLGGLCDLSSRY
In assay [16] the target is DNA dC->dU-editing enzyme APOBEC-3G (Homo sapiens, UniProt Q9HC16). Briefly: APOBEC3G deaminase inhibitors, SAR follow-up, biochemical, fluorescence, single-stranded DNA substrate (AID 602136). Format: functional. Conditions: read-out: IC50_Mean.
Sequence of DNA dC->dU-editing enzyme APOBEC-3G (Q9HC16 whole entry): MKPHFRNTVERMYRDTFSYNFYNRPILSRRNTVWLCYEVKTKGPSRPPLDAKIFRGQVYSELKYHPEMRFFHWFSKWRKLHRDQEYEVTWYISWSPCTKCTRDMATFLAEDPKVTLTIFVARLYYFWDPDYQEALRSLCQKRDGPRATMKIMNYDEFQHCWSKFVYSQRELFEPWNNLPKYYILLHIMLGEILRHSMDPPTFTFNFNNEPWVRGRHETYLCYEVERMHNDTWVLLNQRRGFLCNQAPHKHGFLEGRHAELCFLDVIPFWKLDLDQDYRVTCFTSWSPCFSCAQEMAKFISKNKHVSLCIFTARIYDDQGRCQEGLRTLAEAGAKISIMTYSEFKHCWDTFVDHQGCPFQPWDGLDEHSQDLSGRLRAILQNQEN
Assay [17] deals with DNA dC->dU-editing enzyme APOBEC-3A (Homo sapiens, UniProt P31941). Briefly: SAR analysis of small molecule inhibitors of APOBEC3A DNA Deaminase via a fluorescence-based single-stranded DNA deaminase assay. Format: functional. Conditions: read-out: IC50_Mean.
Sequence of DNA dC->dU-editing enzyme APOBEC-3A (P31941 whole entry): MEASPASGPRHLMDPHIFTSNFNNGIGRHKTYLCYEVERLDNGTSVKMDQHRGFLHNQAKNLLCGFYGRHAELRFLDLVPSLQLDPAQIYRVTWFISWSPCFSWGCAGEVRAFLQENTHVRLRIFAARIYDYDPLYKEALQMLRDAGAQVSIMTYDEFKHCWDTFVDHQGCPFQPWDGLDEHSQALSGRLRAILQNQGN
Assay [18] addresses T6, Melanin-concentrating hormone receptor 1 (Homo sapiens, UniProt Q99705). Kind of assay: Late-stage fluorescence-based counterscreen for antagonists of the G-protein coupled receptor 7 (GPR7): cell-based dose response assay to identify antagonists of the melanin-concentrating hormone receptor 1 (MCHR1) Set 5. Format: functional.
Assay [19] has as its target T7, Neuropeptides B/W receptor type 1 (Homo sapiens, UniProt P48145).
T7 sequence (P48145 whole entry): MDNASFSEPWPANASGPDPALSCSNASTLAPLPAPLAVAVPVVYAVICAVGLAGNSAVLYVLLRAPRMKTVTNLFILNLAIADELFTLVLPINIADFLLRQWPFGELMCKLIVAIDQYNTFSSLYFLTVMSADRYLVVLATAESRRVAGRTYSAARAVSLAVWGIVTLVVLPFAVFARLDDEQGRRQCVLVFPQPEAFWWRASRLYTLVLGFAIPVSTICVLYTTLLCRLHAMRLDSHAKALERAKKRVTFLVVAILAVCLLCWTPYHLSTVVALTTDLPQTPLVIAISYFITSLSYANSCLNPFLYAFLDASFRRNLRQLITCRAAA
Briefly: GPR7 antagonist potency, late-stage follow-up, cell-based, fluorescence, dose response, set 5 (AID 588566). Format: functional.

Assay [20] addresses T6, Melanin-concentrating hormone receptor 1. Kind of assay: Late-stage fluorescence-based counterscreen for antagonists of the G-protein coupled receptor 7 (GPR7): cell-based dose response assay to identify antagonists of the melanin-concentrating hormone receptor 1 (MCHR1) Set 6. Format: functional.
In assay [21] the target is T7, Neuropeptides B/W receptor type 1. Kind of assay: GPR7 antagonist potency, late-stage follow-up, cell-based, fluorescence, dose response, set 6 (AID 588583). Format: functional.
Assay [22] concerns the target Latent membrane protein 1 (Human herpesvirus 4 (strain B95-8), UniProt P03230). Briefly: TES1-eGFP NF-kB reporter inhibition versus Tet-On dsRED, dose response, selectivity assay for LMP1 NF-kB inhibitor project, imaging, HEK293T, dual-color eGFP/dsRED, cherry-picks (AID 588398). Format: functional, cell-based.

T6 sequence (Q99705 whole entry): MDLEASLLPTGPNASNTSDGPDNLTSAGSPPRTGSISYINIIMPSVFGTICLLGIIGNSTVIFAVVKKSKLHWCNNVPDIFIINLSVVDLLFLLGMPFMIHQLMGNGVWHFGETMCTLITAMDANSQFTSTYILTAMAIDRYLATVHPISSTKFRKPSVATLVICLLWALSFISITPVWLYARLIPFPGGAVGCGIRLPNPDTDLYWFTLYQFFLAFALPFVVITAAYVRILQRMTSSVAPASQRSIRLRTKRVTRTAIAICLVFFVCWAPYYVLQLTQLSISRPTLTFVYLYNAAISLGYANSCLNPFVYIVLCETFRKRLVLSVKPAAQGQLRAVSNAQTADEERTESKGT
Sequence of Neurotensin receptor type 1 (P30989 whole entry): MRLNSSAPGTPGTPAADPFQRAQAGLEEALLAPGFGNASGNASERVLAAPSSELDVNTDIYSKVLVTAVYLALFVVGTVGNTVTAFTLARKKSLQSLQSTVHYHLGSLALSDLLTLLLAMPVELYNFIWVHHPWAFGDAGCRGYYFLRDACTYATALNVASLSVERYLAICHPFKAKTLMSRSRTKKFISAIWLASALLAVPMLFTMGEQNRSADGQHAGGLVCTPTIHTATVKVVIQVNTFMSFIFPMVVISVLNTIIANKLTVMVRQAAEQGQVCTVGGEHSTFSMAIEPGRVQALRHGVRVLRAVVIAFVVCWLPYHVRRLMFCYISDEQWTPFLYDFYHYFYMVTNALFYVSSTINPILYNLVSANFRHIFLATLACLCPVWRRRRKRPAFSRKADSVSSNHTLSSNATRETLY
Sequence of Latent membrane protein 1 (P03230 whole entry): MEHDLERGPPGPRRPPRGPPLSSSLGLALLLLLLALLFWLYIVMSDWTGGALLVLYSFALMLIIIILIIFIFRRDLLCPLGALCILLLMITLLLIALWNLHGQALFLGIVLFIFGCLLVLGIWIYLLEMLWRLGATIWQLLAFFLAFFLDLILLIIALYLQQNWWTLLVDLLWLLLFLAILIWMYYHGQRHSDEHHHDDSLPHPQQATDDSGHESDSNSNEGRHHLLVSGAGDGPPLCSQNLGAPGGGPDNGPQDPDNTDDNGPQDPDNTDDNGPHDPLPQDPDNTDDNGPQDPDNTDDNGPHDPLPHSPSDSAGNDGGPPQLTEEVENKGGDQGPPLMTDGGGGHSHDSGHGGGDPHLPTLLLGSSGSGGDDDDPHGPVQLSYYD

For `CCCc1cc(C(=O)N(C2CCCCC2)C2CCCCC2)no1`, the EC50 in assay [1] was > 50 µM (inactive); in assay [3] it was > 50 µM (not active); in assay [4], 0.243 µM (active); in assay [5], > 10 µM (not active); in assay [6], > 50 µM (inactive). Further, the “Absolute IC50 (CHOP)” value in assay [2] is 10 µM. Further, the “Absolute IC50 (XBP1)” value in assay [7] turned out to be 10 µM.

`O=C(N/N=C/c1c[nH]c2ccccc12)C1CC1(c1ccccc1)c1ccccc1` (configuration not stated): the IC50 in assay [8], in assay [10], in [12] and in assay [13] was > 99 µM (inactive) in each case. Besides, the AC50 in assay [9] was 4.64 µM (active). The CC50 in assay [11] was 16 µM (active). Further, the concentration giving a half-maximal response (EC50) in [14] is 12.3 µM (active); in [15] it was > 89.2 µM (inactive).

For the compound `O=C(CSc1nc2cccnc2[nH]1)Nc1cccc(Br)c1`, the IC50 in assay [16] and in assay [17] was > 99 µM (inactive) in each case.

With `CCOc1ccc(C(C#N)c2c(Cl)cnn(Cc3cccc4ccccc34)c2=O)cc1` (configuration not stated), the IC50 in assay [18] is > 20 µM (inactive); in [19], 0.234 µM (active).

Turning to `N#CC(c1c(F)cccc1Cl)c1c(Cl)cnn(Cc2cccc3ccccc23)c1=O` (configuration not stated), the IC50 in assay [20] and in assay [21] was 0.706 µM (active) throughout.

`CCN1C(=O)[C@@H]2[C@@H](c3ccc(-c4ccc(Cl)c(Cl)c4)cc3)N3CCC[C@@]3(C(=O)OC)[C@@H]2C1=O`: the AC50 in assay [22] was 70.2 µM (active).
